Test results reported in ChEMBL document CHEMBL6092158, “Green synthesis of neuroprotective spirocyclic chalcone derivatives and their role in protecting against traumatic optic nerve injury” (Eur J Med Chem, 2024).
Active and inactive are the calls of the source. The rule behind the calls is not given here.

Experiments:
[1] = system: R28; assay: Cytoprotective activity against glutamate-induced cytotoxicity in rat R28 cells assessed as increase in cell viability at 10 uM incubated for 24 hrs in presence of glutamate by MTT assay; format: functional, cell-based
[2] = system: R28; assay: Cytoprotective activity against hydrogen peroxide-induced cytotoxicity in rat R28 cells assessed as increase in cell viability at 10 uM preincubated for 24 hrs followed by incubation with H2O2 for 24 hrs by MTT assay; format: functional, cell-based
[3] = system: Mus musculus; assay: Neuroprotective activity against optic nerve crush C57BL/6J mouse model assessed as increase in inner plexiform layer complex at 1 ug/ul administered into vitreous cavity immediately after ONC surgery and measured on day 7 post-surgery by optical coherence examination analysis; format: functional, organism-based; details: dose 1.0 µg/microL, route ivt, time 7.0 day
[4] = Antioxidant activity in rat R28 cells assessed as inhibition of glutamate-induced reactive oxygen species generation at 5 uM incubated for 24 hrs by DCFH-DA staining based flow cytometry (reference value: 16.61%); format: functional; parameters: scale not given: the % may be the effect or the level left
[5] = Acute toxicity in C57BL/6J mouse assessed as body weight at 500 mg/kg, ip measured for 14 days; format: organism-based; details: in vivo, 336 h, time 14 day
[6] = Induction of apoptosis in rat R28 cells assessed as necrotic cells incubated for 24 hrs by AnnexinV-FITC/PI staining based flow cytometry (reference value: 2.54%); format: toxicity, cell-based; details: r28, 24 h
[7] = Acute toxicity in C57BL/6J mouse assessed as spleen weight at 500 mg/kg, ip and measured on day 14; format: organism-based; details: in vivo, 336 h, time 14 day
[8] = system: Mus musculus; assay: Neuroprotective activity against optic nerve crush C57BL/6J mouse model assessed as increase in ganglion cell layer complex at 1 ug/ul administered into vitreous cavity immediately after ONC surgery and measured on day 7 post-surgery by optical coherence examination analysis; format: functional, organism-based; details: dose 1.0 µg/microL, route ivt, time 7.0 day
[9] = Induction of apoptosis in rat R28 cells assessed as early apoptotic cells incubated for 24 hrs by AnnexinV-FITC/PI staining based flow cytometry (reference value: 1.53%); format: toxicity, cell-based; details: r28, 24 h
[10] = Inhibition of glutamate-induced apoptosis in rat R28 cells assessed as necrotic cells incubated for 24 hrs by AnnexinV-FITC/PI staining based flow cytometry (reference value: 0.68%); format: functional; parameters: scale not given: the % may be the effect or the level left
[11] = Induction of apoptosis in rat R28 cells assessed as late apoptotic cells incubated for 24 hrs by AnnexinV-FITC/PI staining based flow cytometry (reference value: 4.59%); format: toxicity, cell-based; details: r28, 24 h
[12] = Acute toxicity in C57BL/6J mouse assessed as liver weight at 500 mg/kg, ip and measured on day 14; format: organism-based; details: in vivo, 336 h, time 14 day
[13] = Antioxidant activity assessed as DPPH radical scavenging activity at 20 uM by DPPH assay; format: functional
[14] = system: Cortical neurone; assay: Cytoprotective activity against oxidative glutamate-induced cytotoxicity in rat primary cortical neuronal cells assessed as increase in cell viability at 1.25 uM incubated for 24 hrs by CCK8 assay; format: functional, cell-based
[15] = Acute toxicity in C57BL/6J mouse assessed as AST level in serum at 500 mg/kg, ip and measured on day 14; format: organism-based; details: in vivo, 336 h, time 14 day
[16] = Acute toxicity in C57BL/6J mouse assessed as animal activity level at 500 mg/kg, ip; format: organism-based; details: in vivo
[17] = system: Mus musculus; assay: Neuroprotective activity against optic nerve crush C57BL/6J mouse model assessed as restoration of P1 latency of optic nerve at 1 ug/ul administered into vitreous cavity immediately after ONC surgery and measured on day 7 post-surgery by […] based electrophysiological analysis; format: functional, organism-based; details: dose 1.0 µg/microL, route ivt, time 7.0 day
[18] = Acute toxicity in C57BL/6J mouse assessed as kidney weight at 500 mg/kg, ip and measured on day 14; format: organism-based; details: in vivo, 336 h, time 14 day
[19] = Cytotoxicity against rat R28 cells assessed as effect on cell viability by MTT assay; format: toxicity, cell-based
[20] = Antioxidant activity assessed as DPPH radical scavenging activity at 100 uM by DPPH assay; format: functional
[21] = Acute toxicity in C57BL/6J mouse assessed as ALT level in serum at 500 mg/kg, ip and measured on day 14; format: organism-based; details: in vivo, 336 h, time 14 day
[22] = Acute toxicity in C57BL/6J mouse assessed as retinal damage at 500 mg/kg, ip and measured on day 14 by Hematoxylin-Eosin staining based analysis; format: organism-based; details: in vivo, 336 h, time 14 day
[23] = system: Mus musculus; assay: Effect on total JNK level in retinal tissue of optic nerve crush C57BL/6J mouse model at 1 ug/ul administered into vitreous cavity immediately after ONC surgery and measured on day 7 post-surgery by western blot analysis; format: functional; details: dose 1.0 µg/microL, route ivt, time 7.0 day
[24] = Acute toxicity in C57BL/6J mouse assessed as liver damage at 500 mg/kg, ip and measured on day 14 by Hematoxylin-Eosin staining based analysis; format: organism-based; details: in vivo, 336 h, time 14 day
[25] = system: Mus musculus; assay: Neuroprotective activity against optic nerve crush C57BL/6J mouse model at 1 ug/ul administered into vitreous cavity immediately after ONC surgery and measured on day 7 post-surgery by optical coherence examination analysis; format: functional, organism-based; details: dose 1.0 µg/microL, route ivt, time 7.0 day
[26] = Acute toxicity in C57BL/6J mouse assessed as spleen damage at 500 mg/kg, ip and measured on day 14 by Hematoxylin-Eosin staining based analysis; format: organism-based; details: in vivo, 336 h, time 14 day
[27] = Induction of apoptosis in rat R28 cells assessed as viable cells incubated for 24 hrs by AnnexinV-FITC/PI staining based flow cytometry (reference value: 91.34%); format: toxicity, cell-based; details: read-out: Activity
[28] = system: Mus musculus; assay: Neuroprotective activity against optic nerve crush C57BL/6J mouse model assessed as increase in retinal nerve fibre layer thickness complex at 1 ug/ul administered into vitreous cavity immediately after ONC surgery and measured on day 7 post-surgery by optical coherence examination analysis; format: functional, organism-based; details: dose 1.0 µg/microL, route ivt, time 7.0 day
[29] = Inhibition of glutamate-induced apoptosis in rat R28 cells assessed as early apoptotic cells incubated for 24 hrs by AnnexinV-FITC/PI staining based flow cytometry (reference value: 69.04%); format: functional; parameters: scale not given: the % may be the effect or the level left
[30] = Acute toxicity in C57BL/6J mouse assessed as heart damage at 500 mg/kg, ip and measured on day 14 by Hematoxylin-Eosin staining based analysis; format: organism-based; details: in vivo, 336 h, time 14 day
[31] = Inhibition of glutamate-induced apoptosis in rat R28 cells assessed as late apoptotic cells incubated for 24 hrs by AnnexinV-FITC/PI staining based flow cytometry (reference value: 3.47%); format: functional; parameters: scale not given: the % may be the effect or the level left
[32] = Effect on reactive oxygen species generation in rat R28 cells at 5 uM incubated for 24 hrs by DCFH-DA staining based flow cytometry (reference value: 0.49%); format: toxicity, cell-based; details: r28, 24 h
[33] = system: Mus musculus; assay: Neuroprotective activity against optic nerve crush C57BL/6J mouse model assessed as increase in P1-N2 wave amplitude of optic nerve at 1 ug/ul administered into vitreous cavity immediately after ONC surgery and measured on day 7 post-surgery by F-EVP based electrophysiological analysis; format: functional, organism-based; details: dose 1.0 µg/microL, route ivt, time 7.0 day
[34] = system: Cortical neurone; assay: Antioxidant activity in rat primary cortical neuron assessed as inhibition of glutamate-induced reactive oxygen species generation at 5 uM incubated for 24 hrs by DCFH-DA staining based immunofluorescence analysis; format: functional, cell-based
[35] = Acute toxicity in C57BL/6J mouse assessed as lungs weight at 500 mg/kg, ip and measured on day 14; format: organism-based; details: in vivo, 336 h, time 14 day
[36] = system: R28; assay: Inhibition of glutamate-induced apoptosis in rat R28 cells assessed as decrease in number of PI-positive cells at 5 uM incubated for 24 hrs by Hoechst33342/PI staining based fluorescence microscopic analysis; format: functional, cell-based
[37] = Acute toxicity in C57BL/6J mouse assessed as kidney damage at 500 mg/kg, ip and measured on day 14 by Hematoxylin-Eosin staining based analysis; format: organism-based; details: in vivo, 336 h, time 14 day
[38] = Inhibition of glutamate-induced apoptosis in rat R28 cells assessed as viable cells incubated for 24 hrs by AnnexinV-FITC/PI staining based flow cytometry (reference value: 28.81%); format: functional
[39] = system: R28; assay: Cytoprotective activity against oxidative glutamate-induced cytotoxicity in rat R28 cells assessed as increase in cell viability at 1.25 to 2.5 uM incubated for 24 hrs by MTT assay; format: functional, cell-based; details: dose 1.25-2.5 µM
[40] = Acute toxicity in C57BL/6J mouse assessed as heart weight at 500 mg/kg, ip and measured on day 14; format: organism-based; details: in vivo, 336 h, time 14 day
[41] = system: R28; assay: Antioxidant activity in rat R28 cells assessed as inhibition of glutamate-induced reactive oxygen species generation by measuring decrease in fluorescence intensity at 5 uM incubated for 24 hrs by DCFH-DA staining based immunofluorescence analysis; format: functional, cell-based
[42] = Acute toxicity in C57BL/6J mouse assessed as lung damage at 500 mg/kg, ip and measured on day 14 by Hematoxylin-Eosin staining based analysis; format: organism-based; details: in vivo, 336 h, time 14 day
[43] = system: R28; assay: Antioxidant activity in rat R28 cells assessed as inhibition of glutamate-induced oxidative stress by measuring decrease in intracellular MDA level; format: functional, cell-based
[44] = system: Mus musculus; assay: Inhibition of glutamate-induced JNK phosphorylation in retinal tissue of optic nerve crush C57BL/6J mouse model at 1 ug/ul administered into vitreous cavity immediately after ONC surgery and measured on day 7 post-surgery by western blot analysis; format: functional; details: dose 1.0 µg/microL, route ivt, time 7.0 day

With CN1C[C@H](c2ccc(O)c(O)c2)[C@@H](C(=O)c2ccc(O)cc2)[C@]12C(=O)Nc1ccccc12 the Activity [1] was “Active” and the Activity [2] was “Active”.

In the case of CN1C[C@H](c2ccc(O)c(O)c2)[C@@H](C(=O)c2cccc(Br)c2)[C@]12C(=O)Nc1ccccc12, the Activity [1] is reported as “Active” and the Activity [2] is reported as “Active”.

In the case of CN1C[C@H](c2ccc(O)c(O)c2)[C@@H](C(=O)c2cccc(O)c2)[C@]12C(=O)Nc1ccccc12, the Activity [1] is reported as “Active” and the Activity [2] is reported as “Active”.

In the case of CN1C[C@H](c2ccc(O)c(O)c2)[C@@H](C(=O)c2ccc(OC(F)(F)F)cc2)[C@]12C(=O)Nc1ccccc12, the Activity [1] is reported as “Active” and the Activity [2] is reported as “Active”.

For CN1C[C@H](c2ccc(O)c(O)c2)[C@@H](C(=O)c2ccccc2)[C@]12C(=O)Nc1ccccc12, the Activity [1] was “Active” and the Activity [2] was “Active”.

With CN1C[C@H](c2ccc(O)c(O)c2)[C@@H](C(=O)c2cc(F)cc(F)c2)[C@]12C(=O)Nc1ccccc12 the Activity [3] was “Active”, the Activity [4] was 4.62% and the Activity [5] was “Non-toxic”. For the same compound, the Activity [6] was 2.13%, the Activity [7] was “Non-toxic” and the Activity [8] was “Active”. It also gave an Activity [9] of 1.94%, an Activity [10] of 2.54% and an Activity [11] of 8.4%. For the same compound, the Activity [12] was “Non-toxic”, the Activity [13] was “Active” and the Activity [14] was “Active”. For the same compound, the Activity [15] was “Non-toxic”, the Activity [16] was “Non-toxic” and the Activity [17] was “Active”. For the same compound, the Activity [18] was “Non-toxic”, the Activity [19] was “Toxic” and the inhibition [20] was 95%. For the same compound, the Activity [21] was “Non-toxic”, the Activity [22] was “Non-toxic” and the Activity [23] was “inactive”. For the same compound, the Activity [24] was “Non-toxic”, the Activity [25] was “Active” and the Activity [1] was “Active”. The Activity [26] was “Non-toxic”, the viability at 24 h [27] was 87.5% and the Activity [28] was “Active”. For the same compound, the Activity [29] was 1.63%, the Activity [2] was “Active” and the Activity [30] was “Non-toxic”. For the same compound, the Activity [31] was 6.05%, the Activity [32] was 2.05% and the Activity [33] was “Active”. For the same compound, the Activity [34] was “Active”, the Activity [35] was “Non-toxic” and the inhibition [36] was “Active”. For the same compound, the Activity [37] was “Non-toxic”, the Activity [38] was 89.77% and the Activity [39] was “Active”. The Activity [40] was “Non-toxic”, the Activity [41] was “Active” and the Activity [42] was “Non-toxic”. For the same compound, the Activity [43] was “Active” and the inhibition [44] was “Active”.

For COc1cc(C(=O)[C@@H]2[C@@H](c3ccc(O)c(O)c3)CN(C)[C@@]23C(=O)Nc2ccccc23)ccc1O, the Activity [1] was “Active” and the Activity [2] was “Active”.

For CN1C[C@H](c2ccc(O)c(O)c2)[C@@H](C(=O)c2ccc(F)cc2)[C@]12C(=O)Nc1ccccc12, the Activity [1] was “Active” and the Activity [2] was “Active”.

In the case of CN1C[C@H](c2ccc(O)c(O)c2)[C@@H](C(=O)c2ccc(Br)cc2)[C@]12C(=O)Nc1ccccc12, the Activity [1] is reported as “Active” and the Activity [2] is reported as “Active”.

With CN1C[C@H](c2ccc(O)c(O)c2)[C@@H](C(=O)c2ccc(Cl)cc2Cl)[C@]12C(=O)Nc1ccccc12 the Activity [1] was “Active” and the Activity [2] was “Active”.

With CN1C[C@H](c2ccc(O)c(O)c2)[C@@H](C(=O)c2ccc(Cl)cc2)[C@]12C(=O)Nc1ccccc12 the Activity [1] was “Active” and the Activity [2] was “Active”.
